# Reference: patent publication US4923888A, “Butenoic acid amides, their salts, and pharmaceutical compositions containing them” (Richter Gedeon Vegyeszeti Gyar RT, priority 1987, dated 1990)
# Columns and labels:
# chronic stomach ulcer = assay: acetic acid-induced chronic stomach ulcer model (promoting the healing); assay type: in vivo, rats; conditions: for Ulcer index: ± S.E.M
# Description: The investigation of (the effect promoting the healing of) the chronic stomach ulcer induced by acetic acid was carried out as follows. In the course of examining the healing-promoting effect, one of the most widely used methods namely, the so-called acetic acid-induced chronic stomach ulcer model was used [Takagi et. al.: Jap. […] The abdominal wall of anaesthetized rats was opened and 50 μl of a 20% acetic acid solution were injected into the stomach wall, then the abdominal wall of the animal was sutured. The treatment by the test compounds was started on day 5 following the surgical operation and continued until day 14 by using the daily doses shown in Table 2. Then, the animals were killed and their stomachs were examined. The extent of ulceration was assessed by measuring the diameter of the ulcer, wherefrom the size of the damaged area could be calculated. For characterizing the degree of the cicatrization, the change in the ulcer index measured in the treated animals was related to the values measured in the untreated (control) animals and expressed as percentage values.
# [1] = system: glandular part of the stomach; assay: acid-ethanol test (cytoprotective action, method of A. Robert); assay type: in vivo, rats; conditions: oral; for ED50: Rattus norvegicus, acid-ethanol test, starved rats, read-out: Cytoprotective effect ED50
# Description: Starved rats were given absolute ethanol containing concentrated hydrochloric acid which induced longitudinal bleedings in the glandular part of the stomach within a short time. This damaging effect is prevented by cytoprotective substances.
# The oral ED50 values of some compounds according to the invention, which were examined in the acid-ethanol test, are shown in Table 1.
# oral toxicity = assay type: in vivo
# [2] = 50 × 10 mg/kg/day p.o., Table 3
# [3] = 10 × 10 mg/kg/day p.o., Table 2
# [4] = 10 × 10 mg/kg/day p.o., P <0.01 vs control (C only)
molecule,measurement,setting,value
"CCOC(=O)C[C@H](NC(=O)/C=C/C(=O)c1ccccc1)C(=O)OCC [A, diethyl N-[4-oxo-4-phenyl-2(E)-butenoyl]-(S)-aspartate]","healing of the ulcer, result in words","chronic stomach ulcer; 40 mg/kg oral dose, statement on Table 2",not promoted
same,Change in the ulcer index related to the control (delaying of the healing),"chronic stomach ulcer; 40 × 10 mg/kg/day p.o., Table 2",11%
same,Ulcer index,chronic stomach ulcer; 40 × 10 mg/kg/day p.o.,13.4 ± 2.1 mm^2 /stomach
same,ED50,[1],3.8 mg/kg
"CC(=O)c1ccc2c(c1)C(=O)C1(CC1)O2 [Spizofuron, reference compound]",Change in the ulcer index related to the control (promotion of the healing),chronic stomach ulcer; [2],11%
"CN/C(=N/CCSCc1nc[nH]c1C)NC#N [Cimetidine, reference compound]",Change in the ulcer index related to the control (promotion of the healing),chronic stomach ulcer; [2],17%
"CCOC(=O)CC(NC(=O)/C=C/C(=O)c1ccccc1)C(=O)OCC (racemic) [B, diethyl N-[4-oxo-4-phenyl-2(E)-butenoyl]-(RS)-aspartate]",Change in the ulcer index related to the control (promotion of the healing),chronic stomach ulcer; [3],34%
same,Ulcer index,chronic stomach ulcer; [4],7.7 ± 2.8 mm^2 /stomach
same,Change in the ulcer index related to the control (promotion of the healing),"chronic stomach ulcer; 30 × 10 mg/kg/day p.o., Table 2",63%
same,Ulcer index,"chronic stomach ulcer; 30 × 10 mg/kg/day p.o., P <0.01 vs control (B)",4.2 ± 1.8 mm^2 /stomach
same,difference between the healing-promoting effects of the R and RS modifications,chronic stomach ulcer; statement on Table 2,highly significant difference
same,ED50,[1],2.6 mg/kg
Sucralfate [reference compound],Change in the ulcer index related to the control (promotion of the healing),"chronic stomach ulcer; 500 × 10 mg/kg/day p.o., Table 3",55%
"CCOC(=O)C[C@@H](NC(=O)/C=C/C(=O)c1ccccc1)C(=O)OCC [C, diethyl N-[4-oxo-4-phenyl-2(E)-butenoyl]-(R)-aspartate]","toxicity, oral dose of 1200 mg/kg",oral toxicity,not toxic
same,healing of the ulcer accelerated,"chronic stomach ulcer; 3 mg/kg oral dose, statement on Table 2",57%
same,Change in the ulcer index related to the control (delaying of the healing),"chronic stomach ulcer; 1 × 10 mg/kg/day p.o., Table 2",13%
same,Ulcer index,chronic stomach ulcer; 1 × 10 mg/kg/day p.o.,13.1 ± 3.5 mm^2 /stomach
same,Change in the ulcer index related to the control (promotion of the healing),"chronic stomach ulcer; 3 × 10 mg/kg/day p.o., Table 2",57%
same,Ulcer index,"chronic stomach ulcer; 3 × 10 mg/kg/day p.o., P <0.01 vs control",5.0 ± 1.2 mm^2 /stomach
same,Change in the ulcer index related to the control (promotion of the healing),chronic stomach ulcer; [3],77%
same,Ulcer index,chronic stomach ulcer; [4],2.7 ± 1.1 mm^2 /stomach
same,healing-promoting effect compared with reference drugs,chronic stomach ulcer; R isomer vs reference drugs of Table 3,greatly exceeds that of the reference drugs
same,difference between the healing-promoting effects of the R and RS modifications,chronic stomach ulcer; statement on Table 2,highly significant difference
same,ED50,[1],1.7 mg/kg
same,"cytoprotective test, comparison in words",[1]; statement on Table 1,most effective
"NC[C@H]1CC[C@H](C(=O)Oc2ccc(CCC(=O)O)cc2)CC1 [Cetraxate, reference compound]",Change in the ulcer index related to the control (promotion of the healing),"chronic stomach ulcer; 150 × 10 mg/kg/day p.o., Table 3",49%
"CN1CCN(CC(=O)N2c3ccccc3C(=O)Nc3cccnc32)CC1 [Pirenzepine, reference compound]",Change in the ulcer index related to the control (promotion of the healing),"chronic stomach ulcer; 12 × 10 mg/kg/day p.o., Table 3",13%
"C[S+](C)CCC(N)C(=O)O (stereo not shown) [MMSC, Methylmethionine sulfonium chloride, reference compound]",Change in the ulcer index related to the control (promotion of the healing),chronic stomach ulcer; [2],59%
